The text below walks through data of ChEMBL document CHEMBL1201862, “PubChem BioAssay data set” (2004).

Holding throughout (assay): inhibition of tumour cell growth, NCI panel, 48 h
The test system of assay [1] is Malme-3M.
The test system of assay [2] is 786-0.
Assay [3] relates to A498.
The subject of assay [4] is DU-145.
The test system of assay [5] is SF-268.
Assay [6] deals with SK-OV-3.
The subject of assay [7] is HL-60.
For assay [8], the system named is SK-MEL-5.
Assay [9] concerns SNB-75.
Assay [10] deals with HT-29.
The subject of assay [11] is UO-31.
The test system of assay [12] is PC-3.
The subject of assay [13] is M14.
Assay [14] has as its system MDA-MB-435.
Assay [15] deals with MDA-MB-231.
In assay [16] the test system is OVCAR-8.
The test system of assay [17] is UACC-257.
For assay [18], the system named is NCI-H460.
Assay [19] concerns OVCAR-4.
Assay [20] deals with OVCAR-3.

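Each compound was tested at five concentrations against cells in 96-well plates for 48 hours. The concentration for 50% growth inhibition is given as GI50.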 Calls of active or inactive are those of the source. No stated cut-off is given here; in the data, active = GI50 up to about 1.1 µM and inactive = higher.

For the molecule `Nc1nc2c(c(=O)[nH]1)N=C(COP(=O)(O)OP(=O)(O)O)CN2`, the GI50 in assay [1], in [2], in assay [3], in assay [4], in [5] and in assay [6] was > 100 µM (inactive) throughout. In addition, the GI50 in assay [7], in assay [8], in [9], in assay [10], in assay [11] and in assay [12] was > 100 µM (inactive) throughout. Further, the GI50 in assay [13], in assay [14], in assay [15], in assay [16] and in assay [17] was > 100 µM (inactive) each time.
As for `CCON=C1C(C)(C)C(C)(C)C(C)(C)C1(C)C`, the GI50 in assay [1], in assay [2], in assay [3], in assay [4], in [5] and in assay [6] was > 100 µM (inactive) throughout. For the same molecule, the GI50 in assay [7], in assay [8], in assay [9], in [10], in assay [18] and in [19] was > 100 µM (inactive) each time. In addition, the GI50 in assay [12], in assay [13], in [14], in assay [15], in assay [20] and in [16] was > 100 µM (inactive) throughout. Further, the GI50 in assay [17] is > 100 µM (inactive).
As to `Cc1nc(SCC(=O)Nc2ccc(Cl)cc2)c2sc(=S)n(-c3ccccc3)c2n1`, the GI50 in assay [1], in assay [2], in [3], in assay [4], in [5] and in assay [6] was > 10 µM (inactive) in each case. Moreover, the GI50 in assay [7], in assay [8], in assay [9], in [10], in assay [18] and in [19] was > 10 µM (inactive) throughout. For the same molecule, the GI50 in assay [12], in [13], in [14], in assay [15], in [20] and in assay [16] was > 10 µM (inactive) each time. For the same molecule, the GI50 in [17] is > 10 µM (inactive).
`CC1C(=O)N=C2C(=CN(Cc3ccccc3)c3ccccc32)C(=O)N1C` (centres undefined): the GI50 in assay [1], in assay [2], in assay [3], in assay [4], in [5] and in assay [8] was > 100 µM (inactive) each time. Further, the GI50 in assay [9], in assay [10], in assay [11], in assay [18], in [19] and in [12] was > 100 µM (inactive) each time. Besides, the GI50 in [13], in [14], in assay [15], in assay [20], in [16] and in assay [17] was > 100 µM (inactive) in each case.
For `Cc1ccc(S(=O)(=O)N/N=C2\CCCCCCCCCCC2CN(C)C)cc1` (centres undefined), the GI50 in assay [1] was 16.6 µM (inactive); in assay [2], 15.9 µM (inactive); in [3], 17.7 µM (inactive); in [4], 18.5 µM (inactive); in assay [5] it was 21.3 µM (inactive); in assay [6], 20 µM (inactive). Moreover, the GI50 in [7] was 19.4 µM (inactive); in assay [8], 11.2 µM (inactive); in assay [10], 15.5 µM (inactive); in assay [11] it was 9.04 µM (inactive); in assay [18] it was 12.4 µM (inactive); in assay [19], 18 µM (inactive). Besides, the GI50 in assay [12] is 15.3 µM (inactive); in assay [13] it was 17.1 µM (inactive); in assay [14] it was 14.7 µM (inactive); in assay [15], 18.9 µM (inactive); in assay [20], 17.5 µM (inactive); in [16], 16.8 µM (inactive). In [17], the GI50 was 15 µM (inactive).
As to `Cc1cc2[nH]c3c(C#N)c4c(c(=O)n3c2cc1C)CCCC4`, the GI50 was > 100 µM (inactive) in assay [1]; > 100 µM (inactive) in assay [2]; > 100 µM (inactive) in [3]; > 100 µM (inactive) in assay [4]; 79.3 µM (inactive) in [5]; 14.1 µM (inactive) in assay [6]. The GI50 in assay [7] is 96.6 µM (inactive); in assay [8] it was 32.6 µM (inactive); in assay [10], > 100 µM (inactive); in assay [11], > 100 µM (inactive); in assay [18], > 100 µM (inactive); in assay [19], > 100 µM (inactive). In addition, the GI50 in [12] was > 100 µM (inactive); in assay [13], 14.5 µM (inactive); in assay [14], 67.3 µM (inactive); in [15], > 100 µM (inactive); in assay [20], > 100 µM (inactive); in assay [16] it was > 100 µM (inactive). Besides, the GI50 in assay [17] is > 100 µM (inactive).
Turning to `OC(C1CO1)C(O)C1CO1` (centres undefined), the GI50 in assay [1] is 55.7 µM (inactive); in [2], 8.69 µM (inactive); in [3], 74 µM (inactive); in assay [4], 9.75 µM (inactive); in assay [6] it was 43.1 µM (inactive); in assay [7] it was 3.21 µM (inactive). Also, the GI50 is 29.1 µM (inactive) in assay [8]; 7.96 µM (inactive) in [9]; 63.5 µM (inactive) in assay [10]; 48.5 µM (inactive) in [11]; 3.33 µM (inactive) in assay [18]; 84.9 µM (inactive) in assay [19]. Besides, the GI50 in [12] was 39.8 µM (inactive); in [13], 18.6 µM (inactive); in [14], 101 µM (inactive); in assay [15] it was 132 µM (inactive); in assay [20], 70.3 µM (inactive); in assay [16], 55.2 µM (inactive). The GI50 in assay [17] was 81.7 µM (inactive).
As for `O=C(CCCCCCCCC(=O)NN1C(=O)/C(=C\c2ccc(O)c(O)c2)SC1c1ccc(Cl)cc1)NN1C(=O)/C(=C\c2ccc(O)c(O)c2)SC1c1ccc(Cl)cc1` (centres undefined), the GI50 is 23.7 µM (inactive) in assay [1]; 7.55 µM (inactive) in assay [2]; 19.8 µM (inactive) in [3]; 19.9 µM (inactive) in assay [4]; 8.67 µM (inactive) in assay [5]; 22.6 µM (inactive) in assay [6]. In addition, the GI50 in assay [8] is 30.6 µM (inactive); in assay [9], 29.9 µM (inactive); in assay [10], 57.7 µM (inactive); in assay [11], 5.35 µM (inactive); in assay [18], 30.6 µM (inactive); in assay [19], 31.9 µM (inactive). The GI50 is 20.6 µM (inactive) in [12]; 20.7 µM (inactive) in assay [13]; 66.8 µM (inactive) in assay [14]; 35.6 µM (inactive) in assay [15]; 5.45 µM (inactive) in assay [20]; 10.7 µM (inactive) in assay [16]. For the same molecule, the GI50 in assay [17] was 34 µM (inactive).
For the molecule `c1ccc(C/C(=N\Nc2nc3ccccc3[nH]2)c2ccccn2)cc1`, the GI50 in assay [1] is < 0.0347 µM (active); in assay [2], 0.0316 µM (active); in assay [3] it was 0.217 µM (active); in [4] it was 0.291 µM (active); in assay [5], 0.0444 µM (active); in assay [6], 0.033 µM (active). Moreover, the GI50 is 0.0408 µM (active) in [8]; 0.403 µM (active) in assay [9]; < 0.01 µM (active) in assay [10]; 0.0261 µM (active) in assay [11]; 0.126 µM (active) in [18]; < 0.01 µM (active) in [19]. Also, the GI50 in assay [12] was < 0.01 µM (active); in assay [13] it was < 0.0288 µM (active); in assay [14], 0.385 µM (active); in assay [15], 0.0396 µM (active); in assay [20], < 0.01 µM (active); in assay [16], 0.0235 µM (active). The GI50 in assay [17] is < 0.0107 µM (active).
As to `C=CCc1cc(C=C(C#N)C#N)cc(OC)c1O`, the GI50 is > 100 µM (inactive) in assay [1]; > 100 µM (inactive) in assay [2]; > 100 µM (inactive) in [3]; > 100 µM (inactive) in assay [4]; > 100 µM (inactive) in assay [6]; 28.2 µM (inactive) in assay [7]. Also, the GI50 in [8] was 27.7 µM (inactive); in assay [9], 55.5 µM (inactive); in assay [10] it was > 100 µM (inactive); in assay [11], > 100 µM (inactive); in [18], > 100 µM (inactive); in [19], > 100 µM (inactive). For the same molecule, the GI50 in [12] was 35.8 µM (inactive); in assay [13] it was > 100 µM (inactive); in assay [14], 59 µM (inactive); in [15] it was > 100 µM (inactive); in assay [20] it was 35.2 µM (inactive); in assay [16] it was > 100 µM (inactive). Moreover, in [17], the GI50 was > 100 µM (inactive).
`CC(C)C1=CC23CCC4C(C)(C(=O)O)CCCC4(C)C2CC1C(C(=O)O)C3C(=O)O` (centres undefined): the GI50 in assay [1], in assay [2], in assay [3], in assay [4], in assay [5] and in assay [8] was > 100 µM (inactive) each time. Besides, the GI50 in assay [9], in assay [10], in [11], in assay [18], in assay [19] and in assay [12] was > 100 µM (inactive) throughout. The GI50 in [13], in assay [14], in [15], in assay [20] and in assay [16] was > 100 µM (inactive) throughout.
